Source: US8450479B2, “3-substituted-4-oxo-3,4-dihydro-imidazo[5,1-d][1,2,3,5-tetrazine-8-carboxylic acid amides and their use” (Pharminox Limited, priority 2007, dated 2013)
“And” between values parts separate entries of the source, which are not always exact repeats. Identical values can stand only once. Like-named read-outs stand apart in the source and are kept apart here.

Legend:
Assay type in all cases: cell-based
Colon DLD1 = assay: MTT assay for 7-day toxicity assay
Outline: (§1)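 Cells seeded at 400 cells/well, attached overnight, then exposed to compound at 0.5–1000 μM final for 7 days at 37 °C, 5% CO2. Viability read by MTT, with a day-0 plate fixed at drug addition as reference.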

[1] = test system: Colon HCT116 (MMR mutated); assay: MTT assay for 7-day toxicity assay
Outline: as §1

[2] = test system: Normal Human Fetal Lung Fibroblast MRC-5; assay: MTT assay for 7-day toxicity assay
Outline: as §1

[3] = test system: glioma MGMT− and MGMT+ cell lines; assay: MTT assay, glioma lines as a whole; conditions: glioma MGMT− and MGMT+ cell lines
Excerpt: This assay was first described in Mosmann, T., 1983, “Rapid colorimetric assay for cellular growth and survival: Application to proliferation and cytotoxicity assays”, Journal of Immunological Methods, Vol. 65, Nos. 1-2, pp. 55-63.
Glioma cell lines, SNB19 and U373, both MGMT transfected (i.e., SNB19M and U373M) and vector controls (i.e., SNB19V and U373V); colorectal carcinoma cell lines, HCT116, HT29, and DLD1; melanoma cell line, SKMEL-28; breast cell line, MCF-7; and normal human fetal lung fibroblast cell line, MRC-5; were harvested at 60-80% confluence—during the logarithmic phase of growth.
Following harvesting, cells in suspension were gently syringed through a 23 gauge needle to obtain a near-single cell suspension. The desired cell seeding densities were used and added into 96-well plates in 180 μL culture medium if only one test compound was to be added, or 160 μL if two test compounds were to be added in combination, which were allowed to attach at 37° C. (5% CO2) overnight. For the 7 day assay, the cell seeding density for different cell lines was as follows: SNB19V, SNB19M: 650 cells/well; U373V, U373M: 650 cells/well; SNB19VR, U373VR: 650 cells/well; HCT116, DLD-1, SKMEL-28, MRC-5, MCF-7: 400 cells/well.
The two peripheral lanes were used as blank wells (cell free) and filled with 200 μL of medium in order to minimise medium evaporation from the plate. A separate time zero (T0) plate was set up alongside other plates. Serial dilutions in tissue culture medium of a 100 mM stock of test compound in DMSO were prepared immediately before each assay to ten times the final concentrations required, and then 20 μL was added to each well (200 μL total media per well) to achieve final concentrations of 0.5 μM, 1 μM, 5 μM, 10 μM, 50 μM, 100 μM, 500 μM, and 1000 μM. A minimum of four wells received the same test compound concentration. To control wells, including those in the T0 plate, 20 μL of medium was added. Previous assays had been carried out to verify that cell viability was not affected by the amount of DMSO added into the test compound-treated wells. A separate plate treated in the same way, but free of test compound, was used as a measure of cell viability at the time of drug addition (day 0).
After incubation at 37° C., 5% CO2 for 7 days (or immediately for the day 0 plate), cell viability was quantified using the MTT assay. 50 μL of sterile filtered MIT (3-(4,5-dimethylthiazol-2-yl)-2,5-diphenyltetrazolium bromide) (2 mg/mL in phosphate buffered saline) were added to each well (final concentration 0.4 mg/mL) and the plates were re-incubated for 4 hours to allow metabolic conversion of MTT by dehydrogenases in viable cells to insoluble formazan crystals. The medium and any unconverted MTT was aspirated, 150 μL of DMSO was added to each well, and the plates were shaken on a plate shaker (Stuart Scientific 503) to ensure complete formazan solubilisation.
The intensity of absorbance is directly proportional to cell viability. A linear relationship exists between cell number and the amount of formazan and so the mean absorbance determined for each well of the same concentration can be used as a quantitative measure of viable cells compared to the controls. A graph of absorbance against drug concentration was plotted and the test compound concentration (GI50) causing 50% inhibition of control cell growth (absorbance increase from day 0) was calculated by interpolation.

[4] = Homo sapiens, DLD-1, 168 h, Colon DLD1, 7-day MTT, single determinations, read-out: GI50
[5] = Colon HCT116 (MMR mutated), 7-day MTT, single determinations, read-out: GI50
[6] = Homo sapiens, HCT-116, 168 h, Colon HCT116 (MMR mutated), 7-day MTT, single determinations, read-out: GI50
[7] = Homo sapiens, MRC5, 168 h, Normal Human Fetal Lung Fibroblast MRC-5, 7-day MTT, single determinations, read-out: GI50
[8] = Normal Human Fetal Lung Fibroblast MRC-5, 7-day MTT, single determinations, read-out: GI50
[9] = Homo sapiens, DLD-1, Colon DLD1, read-out: GI50
[10] = Colon HCT116 (MMR mutated), read-out: GI50
[11] = Homo sapiens, HCT-116, Colon HCT116 (MMR mutated), read-out: GI50
[12] = Homo sapiens, MRC5, Normal Human Fetal Lung Fibroblast MRC-5, read-out: GI50
[13] = Normal Human Fetal Lung Fibroblast MRC-5, read-out: GI50

Compound | GI50 (Colon DLD1; [4]) | GI50 [1, 5] | GI50 [1, 6] | GI50 [2, 7] | GI50 [2, 8] | activity in words [3] | GI50 (Colon DLD1; [9]) | GI50 [1, 10] | GI50 [1, 11] | GI50 [2, 12] | GI50 [2, 13] | GI50 (Colon DLD1; Homo sapiens, DLD-1, Colon DLD1, average of Table 1, read-out: TMZ GI50 Average) | GI50 ([1]; Homo sapiens, HCT-116, Colon HCT116 (MMR mutated), average of Table 1, read-out: TMZ GI50 Average) | GI50 ([2]; Homo sapiens, MRC5, Normal Human Fetal Lung Fibroblast MRC-5, average of Table 1, read-out: TMZ GI50 Average) | GI50 (Colon DLD1; Colon DLD1, read-out: GI50)
C[C@H](c1ccccc1)n1nnc2c(C(N)=O)ncn2c1=O [BB-001, (R)-3-(-1-Phenylethyl)-8-carbamoylimidazotetrazin-4-one] | 80.6 µM | 194 µM | 151 µM | 174 µM |  |  |  |  |  |  |  |  |  |  | 
C#CCn1nnc2c(C(N)=O)ncn2c1=O [EE-001, 3-Propargyl-8-carbamoylimidazotetrazin-4-one] | 29.9 µM |  | 59.9 µM | 56.1 µM | 66.6 µM | more potent than TMZ |  |  |  |  |  |  |  |  | 
CCOC(=O)Cn1nnc2c(C(N)=O)ncn2c1=O [PX-016] | 61.1 µM | 66 µM | 65.2 µM | 109 µM | 197 µM | surprising efficacy |  |  |  |  |  |  |  |  | 
COCn1nnc2c(C(N)=O)ncn2c1=O [PX-020] |  |  |  |  |  | surprising efficacious | 55.4 µM | 47.4 µM and 52.4 µM and 56.1 µM and 29.5 µM | 57.4 µM | 61.6 µM | 51.5 µM and 74.1 µM |  |  |  | 
C[Si](C)(C)CCOCn1nnc2c(C(N)=O)ncn2c1=O [PX-021] |  |  |  |  |  | surprising efficacious | 53.7 µM | 39.8 µM and 36.6 µM and 40.1 µM | 33.6 µM | 48.6 µM | 65.4 µM |  |  |  | 
NC(=O)c1ncn2c(=O)n(CCl)nnc12 [PX-030] |  |  |  |  |  |  |  |  | 22.3 µM | 50.9 µM | 67.2 µM |  |  |  | 
Cn1nnc2c(C(N)=O)ncn2c1=O [TMZ, 3-Methyl-4-oxo-3,4-dihydro-imidazo[5,1-d][1,2,3,5]tetrazine-8-carboxylic acid amide, reference compound] | 435 µM | 570 µM and 594 µM | 607 µM | 441 µM | 458 µM | demonstrably more active in the glioma lines which are MGMT− | 435 µM |  | 591 µM | 449 µM |  | 435 µM | 591 µM | 449 µM | 
C[S+]([O-])Cn1nnc2c(C(N)=O)ncn2c1=O (stereo not shown) [UU-003, 3-Methanesulfinylmethyl-4-oxo-3,4-dihydro-imidazo[5,1-d][1,2,3,5]tetrazine-8-carboxylic acid amide] |  |  |  |  |  | surprising efficacy | 8.2 µM | 5.3 µM and 5 µM | 6.7 µM | 56.8 µM | 55.2 µM and 52.1 µM |  |  |  | 9.3 µM
